Source: paper PMC7377239, “Cardiovascular Effects of Polychlorinated Biphenyls and Their Major Metabolites” (Environmental Health Perspectives, 2020)
Read-outs that look alike come from different tables or passages of the source.

What was measured:
HUVECs = assay: High-content imaging cytotoxicity in HUVECs, 24 h; format: cell-based, human; details: Homo sapiens, HUVEC, 24 h, HUVECs; for viability at 0.01 µM / activity at 0.01 µM: concentration 0.01 µM; for viability at 0.01 µM / activity at 0.01 µM / viability at 0.1 µM / activity at 0.1 µM / viability at 1 µM / activity at 1 µM / viability at 10 µM / activity at 10 µM / viability at 100 µM / activity at 100 µM: 0.00 µM = 100.00; for viability at 0.1 µM / activity at 0.1 µM: concentration 0.10 µM; for viability at 1 µM / activity at 1 µM: concentration 1.00 µM; for viability at 10 µM / activity at 10 µM: concentration 10.00 µM; for viability at 100 µM / activity at 100 µM: concentration 100.00 µM; for minimal effective concentration: MAX 100.00
Procedure, shortened: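 Point-of-departure values derive from four-parameter logistic fits of vehicle-normalized imaging phenotypes (Hoechst 33342, MitoTracker Orange, calcein AM). The fits follow 24 h exposure of HUVEC monolayers at 37°C and 5% CO2, with a top tested concentration of 100μM.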

[1] = test system: iCell cardiomyocytes (human iPSC-derived cardiomyocytes); assay: High-content imaging of cytotoxicity and mitochondrial integrity in iPSC-CMs; format: cell-based; details: Homo sapiens, Cardiomyocyte; for viability at 0.01 µM / activity at 0.01 µM / viability at 0.1 µM / activity at 0.1 µM / viability at 1 µM / activity at 1 µM / viability at 10 µM / activity at 10 µM / viability at 100 µM / activity at 100 µM: 0.00 µM = 100.00; for viability at 0.1 µM / activity at 0.1 µM: 0.10 µM
Procedure, shortened: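 Readouts from high-content images were normalized to vehicle controls containing 0.5% vol/vol DMSO. They were fit to a four-parameter logistic model in R. Points of departure were set using a cutoff of one standard deviation across vehicle control means. Where no concentration–response was seen, the top tested concentration of 100μM was assigned as the no observable adverse effect level.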

[2] = 24 hr, read-out: huvec.cyto.24hr
[3] = 24 hr, read-out: huvec.mito.24hr
[4] = 24 hr, read-out: huvec.mitoint.24hr
[5] = 24 hr, read-out: huvec.nma.24hr
[6] = 24 hrs, read-out: huvec.tc.24hrs
[7] = 1.5 h, 90min, read-out: cm.cam.90min
[8] = 1.5 h, 90min, read-out: cm.mii.90min
[9] = 1.5 h, 90min, read-out: cm.mito.90min
[10] = 1.5 h, 90min, read-out: cm.tc.90min
[11] = 24 h, 24hrs, read-out: cm.cam.24hrs
[12] = 24 h, 24hrs, read-out: cm.mii.24hrs
[13] = 24 h, 24hrs, read-out: cm.mito.24hrs
[14] = 24 h, 24hrs, read-out: cm.tc.24hrs

Clc1ccc(-c2cc(Cl)c(Cl)c(Cl)c2)cc1Cl [PCB126]
viability at 0.01 µM (HUVECs; [2]): 86.8% | activity at 0.01 µM (HUVECs; [3]): 85.6% | activity at 0.01 µM (HUVECs; [4]): 89% | activity at 0.01 µM (HUVECs; [5]): 94.2% | viability at 0.1 µM (HUVECs; [2]): 93.4% | activity at 0.1 µM (HUVECs; [3]): 92% | activity at 0.1 µM (HUVECs; [4]): 79.3% | activity at 0.1 µM (HUVECs; [5]): 93.5% | viability at 1 µM (HUVECs; [2]): 93.8% | activity at 1 µM (HUVECs; [3]): 92.5% | activity at 1 µM (HUVECs; [4]): 83.6% | activity at 1 µM (HUVECs; [5]): 95.2% | viability at 10 µM (HUVECs; [2]): 91.2% | activity at 10 µM (HUVECs; [3]): 89.7% | activity at 10 µM (HUVECs; [4]): 74.2% | activity at 10 µM (HUVECs; [5]): 93% | viability at 100 µM (HUVECs; [2]): 57.1% | activity at 100 µM (HUVECs; [3]): 55% | activity at 100 µM (HUVECs; [4]): 96.7% | activity at 100 µM (HUVECs; [5]): 84.5% | minimal effective concentration (HUVECs; 24 hr, read-out: huvec.cyto.24hr POD): 5.33 µM | minimal effective concentration (HUVECs; 24 hr, read-out: huvec.mito.24hr POD): 100 µM | minimal effective concentration (HUVECs; 24 hr, read-out: huvec.mitoint.24hr POD): 100 µM | minimal effective concentration (HUVECs; 24 hr, read-out: huvec.nma.24hr POD): 100 µM | viability at 0.01 µM (HUVECs; [6]): 86.9% | viability at 0.1 µM (HUVECs; [6]): 93.4% | viability at 1 µM (HUVECs; [6]): 93.8% | viability at 10 µM (HUVECs; [6]): 91.4% | viability at 100 µM (HUVECs; [6]): 57.3% | minimal effective concentration (HUVECs; 24 hrs, read-out: huvec.tc.24hrs POD): 5.33 µM | viability at 0.01 µM [1, 7]: 107% | activity at 0.01 µM [1, 8]: 97.6% | activity at 0.01 µM [1, 9]: 108% | viability at 0.01 µM [1, 10]: 107% | viability at 0.1 µM [1, 7]: 101% | activity at 0.1 µM [1, 8]: 106% | activity at 0.1 µM [1, 9]: 101% | viability at 0.1 µM [1, 10]: 101% | viability at 1 µM [1, 7]: 97.4% | activity at 1 µM [1, 8]: 111% | activity at 1 µM [1, 9]: 97.2% | viability at 1 µM [1, 10]: 97.2% | viability at 10 µM [1, 7]: 97.1% | activity at 10 µM [1, 8]: 103% | activity at 10 µM [1, 9]: 96.8% | viability at 10 µM [1, 10]: 96.8% | viability at 100 µM [1, 7]: 97.2% | activity at 100 µM [1, 8]: 111% | activity at 100 µM [1, 9]: 96.7% | viability at 100 µM [1, 10]: 96.7% | minimal effective concentration ([1]; 1.5 h, 90min, read-out: cm.cam.90min POD): 100 µM | minimal effective concentration ([1]; 1.5 h, 90min, read-out: cm.mii.90min POD): 100 µM | minimal effective concentration ([1]; 1.5 h, 90min, read-out: cm.mito.90min POD): 100 µM | minimal effective concentration ([1]; 1.5 h, 90min, read-out: cm.tc.90min POD): 100 µM | viability at 0.01 µM [1, 11]: 94.2% | activity at 0.01 µM [1, 12]: 109% | activity at 0.01 µM [1, 13]: 94% | viability at 0.01 µM [1, 14]: 93.7% | viability at 0.1 µM [1, 11]: 97.6% | activity at 0.1 µM [1, 12]: 80.7% | activity at 0.1 µM [1, 13]: 96.1% | viability at 0.1 µM [1, 14]: 98% | viability at 1 µM [1, 11]: 101% | activity at 1 µM [1, 12]: 103% | activity at 1 µM [1, 13]: 103% | viability at 1 µM [1, 14]: 101% | viability at 10 µM [1, 11]: 90.4% | activity at 10 µM [1, 12]: 74% | activity at 10 µM [1, 13]: 88.5% | viability at 10 µM [1, 14]: 90.2% | viability at 100 µM [1, 11]: 46.6% | activity at 100 µM [1, 12]: 101% | activity at 100 µM [1, 13]: 35.6% | viability at 100 µM [1, 14]: 48.4% | minimal effective concentration ([1]; 24 h, read-out: cm.cam.24hrs POD): 7.03 µM | minimal effective concentration ([1]; 24 h, read-out: cm.mii.24hrs POD): 100 µM | minimal effective concentration ([1]; 24 h, read-out: cm.mito.24hrs POD): 7.54 µM | minimal effective concentration ([1]; 24 h, read-out: cm.tc.24hrs POD): 6.48 µM
